Data: patent US5614534A, “Derivatives of β, β-dimethyl-4-piperidineethanamine as inhibitors of the cholesterol biosynthesis” (Fournier Industrie et Sante, priority 1993, dated 1997)

Each compound was assayed against T1, epoxysqualene cyclase (Rattus norvegicus, UniProt P48450) (assay: inhibition of epoxysqualene cyclase in rat hepatic microsomes (lanosterol formed from (R,S)-2,3-oxydosqualene)). Conditions: 25.10^-6 moles per liter of tested product; 150 μM (R,S)-2,3-oxydosqualene, 60 minutes at 37° C., pH=7.4; read-out: Inhibition percentage (of the quantity of lanosterol formed).
T1 construct: Rat hepatic microsomes were used as the source of the enzyme; from tissue; host or cells: liver microsomes of male Wistar rats
T1 sequence (P48450 1-733): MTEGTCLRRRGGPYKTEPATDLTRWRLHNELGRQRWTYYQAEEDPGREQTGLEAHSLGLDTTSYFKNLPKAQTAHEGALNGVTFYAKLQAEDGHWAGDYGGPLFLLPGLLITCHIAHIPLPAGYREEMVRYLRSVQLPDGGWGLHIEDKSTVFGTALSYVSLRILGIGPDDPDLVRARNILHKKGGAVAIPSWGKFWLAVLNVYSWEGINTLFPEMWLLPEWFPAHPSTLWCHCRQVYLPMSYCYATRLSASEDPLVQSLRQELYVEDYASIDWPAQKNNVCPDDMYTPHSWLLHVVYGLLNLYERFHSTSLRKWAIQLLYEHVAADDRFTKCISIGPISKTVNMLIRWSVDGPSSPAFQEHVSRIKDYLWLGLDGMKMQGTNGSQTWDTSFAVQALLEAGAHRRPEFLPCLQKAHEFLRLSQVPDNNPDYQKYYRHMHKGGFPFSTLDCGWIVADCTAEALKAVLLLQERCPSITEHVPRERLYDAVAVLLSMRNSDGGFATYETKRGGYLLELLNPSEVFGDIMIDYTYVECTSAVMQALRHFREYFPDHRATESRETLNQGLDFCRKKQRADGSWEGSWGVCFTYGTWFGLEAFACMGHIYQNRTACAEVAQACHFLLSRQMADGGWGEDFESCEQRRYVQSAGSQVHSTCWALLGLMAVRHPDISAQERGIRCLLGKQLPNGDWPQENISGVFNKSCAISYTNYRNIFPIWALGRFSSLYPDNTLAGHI
Format: biochemical, male Wistar rats
Protocol: The activity of the Compounds of the invention was evaluated by the observation of an inhibiting effect on epoxysqualene cyclase in the hepatic microsomes of male Wistar rats.
The method consisted of measuring the lanosterol formed from R,S-2,3-oxydosqualene by the microsomal enzyme. The enzyme was prepared using the method described by G. C. Ness (G. C. Ness et. al., Biochem. J., (1986), 233, 167-172).
Method for Measuring the Activity of Epoxysqualene Cyclase
Rat hepatic microsomes were used as the source of the enzyme. The method consisted in measuring the lanosterol formed from (R,S)-2,3-oxydosqualene.The (R,S)-2,3-oxydosqualene, the products to be tested and TWEEN® 80 in organic solution (2-propanone or sulphinyl bis-methane) (25 μl) were placed in test tubes and 400 μl of potassium buffer (0.1M, pH=7.4) was added. The reaction was initiated by adding 100 μl of the microsomes. In a final reaction volume of 525 μl, the mixture contained 150 μM of (R,S)-2,3-oxydosqualene, 0.1% of TWEEN® 80 (to dissolve the (R,S)-2,3-oxydosqualene) and 250 μg of microsomal proteins. The reaction time was 60 minutes at 37° C. The reaction was stopped by addition of 300 μl of methanolic potassium hydroxide (7%) and 20 μg of stigmasterol as an internal standard. After saponification at 80° C. for 30 minutes and stirring using a rotary stirrer, the sterols were extracted with 2 ml of hexane. The lanosterol formed was separated from the (R,S)-2,3-oxydosqualene, the membranal cholesterol and the stigmasterol by gas phase chromatography after transformation to the trimethylsilyl ethers. Derivatisation of the sterols was carried out at 60° C. for 30 minutes after addition of 25 μl of pyridine and 75 μl of the trimethylsilyl ester of 2,2,2-trifluoro-N-trimethylsily-ethanimidic acid containing 1% of trimethylchlorosilane ethers.
After evaporation, the trimethylsilyl ethers were taken up into solution in 100 μl of hexane. An aliquot of this solution (2 μl) was gas chromatographed on a OV1 capillary column (0.32 mm, 25 m) under the following conditions: injection temperature=270° C., furnace temperature=260° C., detector temperature=300° C.; the vector gas was nitrogen at a pressure of 7.10^4 Pa.
The potency of the molecules tested was expressed as the percentage inhibition of the quantity of lanosterol formed for a concentration of 25.10^-6 moles per liter of product tested.

Compared with `CCCCCCCCCCCCN1CCC(C(C)(C)CN)CC1` [Example 1, 1-dodecyl-β,β-dimethyl-4-piperidineethanamine], `CCCCCCCCCCCCN1CCC(C(C)(C)CN(C)C)CC1` [Example 2, 1-dodecyl-N,N,β,β-tetramethyl-4-piperidineethanamine] is higher in inhibition: 75% for the first, 97% for the second.

Compared with `CCCCCCCCCCCCN1CCC(C(C)(C)CN(CC)CC)CC1` [Example 4, 1-dodecyl-N,N-diethyl,β,β-dimethyl-4-piperidineethanamine], `CCCCCCCCCCCCN1CCC(C(C)(C)CN(C)C(C)=O)CC1` [Example 10, N-methyl-N-[2-methyl-2-[(1-dodecyl)-4-piperidinyl]propyl]acetamide] is higher in inhibition: 63% for the first, 66% for the second.

Going from `CCCCCCCCCCCCN1CCC(C(C)(C)CNCC)CC1` [Example 9, 1-dodecyl-N-ethyl,β,β-dimethyl-4-piperidineethanamine] to `CCCCCCCCCCCCN1CCC(C(C)(C)CNC(C)=O)CC1` [Example 11, N-[2-methyl-2-[(1-dodecyl)-4-piperidinyl]propyl]-N-acetamide], the inhibition falls from 96% to 58%.

Compared with `C=CCN1CCC(C(C)(C)CN(C)C)CC1` [Example 13, 1-(2-propenyl)-N,N,β,β-tetramethyl-4-piperidineethanamine], `CC(C)=CCN1CCC(C(C)(C)CN(C)C)CC1` [Example 14, 1-(3,3-dimethylpropen-2-yl)-N,N,β,β-tetramethyl-4-piperidineethanamine] is lower in inhibition: 64% for the first, 48% for the second.

First: CCCCCCCCCCCCN1CCC(C(C)(C)CN2CCCCC2)CC1 [Example 15, 1-[[2-[4-(1-dodecylpiperidinyl)]-2-methyl]propyl]piperidine]
Second: CN(C)CC(C)(C)C1CCN(CCCCCCCCCCCn2ccnc2)CC1 [Example 21, 1-[(11-imidazolyl)undecyl]-N,N,β,β-tetramethyl-4-piperidineethanamine]
The inhibition of the first is lower: 40% for the first, 100% for the second.

`CN(C)CC(C)(C)C1CCN(C/C=C/C#CC(C)(C)C)CC1` [Example 16, (E)-1-(6,6-dimethyl-2-hepten-4-yn-1-yl)-N,N,β,β-tetramethyl-4-piperidineethanamine] and `CN(C)CC(C)(C)C1CCN(CCCCCC(C)(C)C)CC1` [Example 17, 1-(6,6-dimethyl-heptyl)-N,N,β,β-tetramethyl-4-piperidineethanamine] are the same in inhibition: 100% for the first, 100% for the second.

Compared with `CC(Cc1ccc(C(C)C)cc1)CN1CCC(C(C)(C)CN(C)C)CC1` (stereo not drawn) [Example 18, 1-[3-[4-(methylethyl)phenyl]-2-methyl-propyl]-N,N,β,β-tetramethyl-4-piperidineethanamine], `CC(C)Cc1ccc(C(C)CN2CCC(C(C)(C)CN(C)C)CC2)cc1` (stereo not drawn) [Example 32, 1-[2-[4-(2-methylpropyl)phenyl]-2-methylethyl]-N,N,β,β-tetramethyl-4-piperidineethanamine] is lower in inhibition: 100% for the first, 95% for the second.

`CCCCCCCCCCC(=O)N1CCC(C(C)(C)CN(C)C)CC1` [Example 19, 1-undecanoyl-N,N,β,β-tetramethyl-4-piperidineethanamine] and `CCCCCCCCCCCC(=O)N1CCC(C(C)(C)C[N+](C)(C)C)CC1` [Example 27, 1-[(1-undecyl)carbonyl]-N,N,N,β,β-pentamethyl-4-piperidinethanaminium Iodide] are the same in inhibition: 100% for the first, 100% for the second.

Compared with `CN(C)CC(C)(C)C1CCN(C(=O)CCCCCCCCCCn2ccnc2)CC1` [Example 20, 1-[(11-imidazolyl)undecanoyl]-N,N,β,β-tetramethyl-4-piperidineethanamine], `CCOC(=O)CCCN1CCC(C(C)(C)CN(C)C)CC1` [Example 25] is lower in inhibition: 100% for the first, 81% for the second.

First: CC(C)CCCC(=O)NCCCN1CCC(C(C)(C)CN(C)C)CC1 [Example 24, N-[[4-[2-(1-dimethylamino-2-methyl)propyl]-1-piperidinyl]-1-propyl]-5-methylhexanamide]
Second: CC(C)CCCNC(=O)CCCN1CCC(C(C)(C)CN(C)C)CC1 [Example 26, N-(4-methylpentyl)-4-[2-(1-dimethylamino-2-methyl)propyl]-1-piperidinebutanamide]
The inhibition of the first is lower: 93% for the first, 100% for the second.

Going from `CN(C)CC(C)(C)C1CCN(C(=O)C=Cc2ccccc2)CC1` [Example 28, 1-(3-phenylpropenoyl)-N,N,β,β-tetramethyl-4-piperidineethanamine] to `CN(C)CC(C)(C)C1CCN(CC=Cc2ccccc2)CC1` [Example 31, 1-(3-phenylpropenyl)-N,N,β,β-tetramethyl-4-piperidineethanamine], the inhibition rises from 87% to 99%.

First: CN(C)CC(C)(C)C1CCN(C(=O)C(C)(C)Oc2ccc(Cl)cc2)CC1 [Example 29, 1-[2-(4-chlorophenoxy)-2,2-dimethyl-ethanoyl]-N,N,β,β-tetramethyl-4-piperidineethanamine]
Second: CN(C)CC(C)(C)C1CCN(CC(C)(C)Oc2ccc(Cl)cc2)CC1 [Example 30, 1-[2-(4-chlorophenoxy)-2,2-dimethyl-ethyl]-N,N,β,β-tetramethyl-4-piperidineethanamine]
The inhibition of the first is higher: 95% for the first, 92% for the second.
